Format in all cases: functional
In assay [1] the test system is Candida. The assay can be described thus: Antifungal activity against Candida species infected patients assessed as residual fungal burden at 0.6 mg/kg/day administered as single dose.
The test system of assay [2] is Candida. The assay can be described thus: Antifungal activity against Candida isolates.
Assay [3] can be described thus: T>MIC in Candida species infected patients at 25 mg/kg/day administered as four divided doses.
In assay [4] the test system is Candida. Nature of the assay: Antifungal activity against Candida species infected patients assessed as residual fungal burden at 0.3 mg/kg/day administered as single dose.
In assay [5] the test system is Candida. The assay can be described thus: Antifungal activity against Candida species infected patients assessed as residual fungal burden at 0.1 mg/kg/day administered as single dose.
The test system of assay [6] is Candida. The assay can be described thus: Antifungal activity against Candida isolates by CLSI methods.
For assay [7], the system named is Candida albicans. The assay can be described thus: Antifungal activity against Candida albicans isolates by broth microdilution method.

≈ marks a conversion by molar mass, not a printed value.

The term MIC denotes the least concentration at which growth counts as inhibited. A high value points to a need for much substance. On to `C[C@@H]1[C@H](O)[C@@H](C)/C=C/C=C/C=C/C=C/C=C/C=C/C=C/[C@H](O[C@@H]2O[C@H](C)[C@@H](O)[C@H](N)[C@@H]2O)C[C@@H]2O[C@](O)(C[C@@H](O)C[C@@H](O)[C@H](O)CC[C@@H](O)C[C@@H](O)CC(=O)O[C@H]1C)C[C@H](O)[C@H]2C(=O)O` [AMPHOTERICIN B], for which the results for the log10CFU/g in assay [1], in assay [4] and in assay [5] were 0.6, 1 and 2.2, respectively. The same compound showed an MIC in assay [2] of no more than 1 µg/mL. Also, the “T>MIC” value in assay [3] was 100%.
By MIC90 is commonly meant the lowest concentration that inhibits either 90% of growth or 90% of the strains tested, depending on the study. In assay [6], `Nc1nc(=O)[nH]cc1F` [FLUCYTOSINE] showed an MIC90 of 1 µg/mL (≈ 7.75 µM). In assay [7], this compound gave a minimum inhibitory concentration (MIC) of 0.125 µg/mL (≈ 0.968 µM).

Values taken from ChEMBL document CHEMBL1153838, “Optimization of the dosage of flucytosine in combination with amphotericin B for disseminated candidiasis: a pharmacodynamic rationale for reduced dosing” (2007).
